Assay results as given in ChEMBL document CHEMBL6103618, “Discovery of Novel Oxazolo[4,3-f]purine Derivatives as Antitumor Agents through PPIA Interaction” (J Med Chem, 2025).
Active and inactive are the calls of the source. No cut-off for these calls is given here.

Experiments:
[1] = system: HCT-116; experiment: Induction of apoptosis in human HCT-116 cells assessed as increase in cleaved caspase-3 level at 0.3 to 1.2 uM incubated for 48 hrs by Western blot analysis; type: functional, cell-based; details: dose 0.3-1.2 µM
[2] = Acute toxicity in BALB/c mouse assessed as death rate at 700 mg/kg, ip measured for 14 days; type: organism-based; details: both, in vivo, time 14 day, read-out: Activity
[3] = system: HepG2; experiment: Antiproliferative activity against human HepG2 cells assessed as inhibition of cell viability incubated for 48 hrs by CCK8 assay; type: functional, cell-based; details: HepG2, 48 h
[4] = system: HCT-116; experiment: Induction of apoptosis in human HCT-116 cells assessed as increase in Bax level at 1.2 uM in presence of NAC by Western blot analysis; type: functional, cell-based
[5] = system: HCT-116; experiment: Induction of apoptosis in human HCT-116 cells assessed as early apoptotic cells at 0.6 uM incubated for 48 hrs by Annexin V-FITC/PI staining based flow cytometry (reference value: 1.12 %); type: functional
[6] = system: HCT-116; experiment: Inhibition of colony formation in human HCT-116 cells incubated for 48 hrs followed by fresh media replacement without compound on every 72 hrs for 14 days by crystal violet staining based analysis; type: functional, cell-based; details: dose 0.3-1.2 µM
[7] = target: Peptidyl-prolyl cis-trans isomerase A (Homo sapiens, UniProt P62937); experiment: Binding affinity to CM5 chip-immobilized PPIA (unknown origin) assessed as dissociation constant by SPR analysis
Sequence of Peptidyl-prolyl cis-trans isomerase A (P62937 whole entry): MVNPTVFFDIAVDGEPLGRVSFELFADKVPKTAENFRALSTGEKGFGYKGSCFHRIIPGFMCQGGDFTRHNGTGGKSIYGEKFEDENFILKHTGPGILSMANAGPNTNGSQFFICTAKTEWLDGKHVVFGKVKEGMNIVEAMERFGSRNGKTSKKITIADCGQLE

[8] = Toxicity in BALB/c mouse implanted with mouse CT26 cells assessed as abnormality in spleen at 15 to 45 mg/kg, ip qd treated for 14 days by H and E staining based analysis; type: organism-based; details: in vivo, 336 h, dose 15-45 mg/kg, time 14 day
[9] = Stability in mouse plasma assessed as half life measured upto 24 hrs by HPLC analysis; type: ADME, cell-free

With `C=C(C(=O)OC)N1c2nc(Cl)nc(Cl)c2N2C(c3ccccc3F)OC(C(=O)OCC)(C(=O)OCC)C12` (racemic) the Activity [1] was “Active”, the mortality at 336 h [2] was 100% and the IC50 [3] was 2160 nM. The Activity [4] was “inactive”, the Activity [5] was 14.8% and the inhibition [6] was “Dose-dependent-effect”. For the same compound, the Kd [7] was 520 nM, the Activity [8] was “Non-toxic” and the half-life [9] was 287 min.
